# Legend:
# CB-17 mice = assay: Infarction volume after transient focal cerebral ischemia (distal MCAO); assay type: in vivo; conditions: KUS121 immediately before the ischemia, vehicle (5% Cremophor) 11.8±0.60%, p<0.05, mean±SE
# Method: (§1) Adult male C57BL/6 (C57BL/6NJcl) and CB-17 (CB-17/lcr-+/+Jcl) mice (6-7 weeks old) were purchased from Shimizu Laboratory supplies and Clea Japan, respectively. Animals were allowed access to food and water ad libitum.
# In CB-17 mice, distal middle cerebral artery occlusion (distal MCAO) was performed as previously described with minor modifications (Kasahara Y, Ihara M, Nakagomi T, et al. A highly reproducible model of cerebral ischemia/reperfusion with extended survival in CB-17 mice. Neuroscience Research, 2013 July; 76(3):163-8). In brief, general anesthesia was induced and maintained by inhalation of 4% and 1.5% isoflurane (Pfizer), respectively. Mice were placed in a lateral position, and a skin incision was made between the left eyeball and the left external auditory canal. The left salivary gland and a part of the temporalis muscle were resected to allow visualization of the middle cerebral artery (MCA) through the cranial bone. A burr hole was made in the cranial bone. […] During surgery, rectal temperature was monitored and controlled at 36.0-37.2° C. by a feedback-regulated heating pad.
# (§2) Mice were deeply anesthetized and perfused transcardially with PBS and 4% PFA 24 hours after ischemia. […] The area of the ipsilateral hemisphere and the area of the infarct on each section were measured using NIH imageJ software. […]
# primary cortical neurons [1] = assay: Cell viability test (CCK-8) after oxygen-glucose deprivation (OGD); assay type: cell-based, rat; conditions: for neuronal viability after OGD: 2 hours OGD + 22 hours recovery, vehicle (DMSO) 18.1±1.9%, p<0.001, mean±SE
# Method: (§3) Cortical neuronal cultures were prepared from 17-day-old Sprague Dawley rat embryos (Shimizu Laboratory Supplies) using methods described earlier (Maki T, et al, Annals of Clinical and Translational Neurology, 2014 August; 1(8):519-33). Briefly, cortices were dissected and dissociated. Cells were plated on dishes coated with poly-D-lysine in Dulbecco's modified Eagle's medium (DMEM) containing 5% heat-inactivated fetal bovine serum and 1% penicillin/streptomycin at a density of 200,000-250,000 cells/cm^2. At 24-hour after seeding, the medium was changed to Neurobasal (NB) medium containing 0.5 mM glutamine, 1% penicillin/streptomycin and 2% B27 supplement. Cultured neurons were used for experiments 14 days after seeding.
# (§4) The medium was replaced with DMEM with no glucose. Then, the cells were placed into the sealed Anaero container with an Anaero Pack (Mitsubishi Gas Chemical Company) for 1.5-2 hours. Following oxygen glucose deprivation, cells were switched to the normal medium and returned to a normoxic 5% CO2 incubator.
# Cell viability was assessed by Cell Counting Kit-8 (CCK-8) assay (Dojindo Laboratories). The CCK-8 assay is based on the conversion of a water-soluble tetrazolium salt, 2-(2-methoxy-4-nitrophenyl)-3-(4-nitrophenyl)-5-(2,4-disulfophenyl)-2H-tetrazolium, monosodium salt (WST-8), to a water-soluble formazan dye upon reduction by dehydrogenases in the presence of an electron carrier. The cells were incubated with 10% CCK-8 solution for 1-2 hour at 37° C. Then the absorbance of the culture medium was measured with a microplate reader at a test wavelength of 450 nm and a reference wavelength of 630 nm.
# To assess protective effects of KUS121 on neurons in ischemic conditions, cell viability tests were performed after oxygen-glucose deprivation (OGD) in both the presence and the absence of KUS121 (FIG. 1, top). OGD was performed in rat cortical primary neuronal cultures for 2 hours with subsequent recovery at 21% 02 and glucose-containing media for further 22 hours. Control neurons were kept at 21% 02 in glucose-containing media for 24 hours. […]
# primary cortical neurons [2] = assay: MAP2 immunocytochemistry after OGD; assay type: cell-based, rat; conditions: 100 μM KUS, vehicle (DMSO) 0.87±0.13%, p<0.05, mean±SE
# Method: as §3, §4
# The cells were washed twice with phosphate buffered saline (PBS), followed by 4% paraformaldehyde (PFA) for 15 minutes. After being further washed twice with PBS, they were incubated with PBS/0.1% Tween (10 min) and blocked with 3% BSA/PBS (1 hour at room temperature). […]
# C57BL/6 mice [3] = assay: Infarction volume after transient focal cerebral ischemia (distal MCAO with hypoxia); assay type: in vivo; conditions: KUS121 immediately after occlusion (100 mg/kg intravenously and 50 mg/kg intraperitoneally), 24 hours after ischemia, vehicle (5% Cremophor) 8.8±0.63%, p<0.05, mean±SE
# Method: as §1
# (§5) In C57BL/6 mice, distal MCAO with hypoxia was performed as previously described with some modifications (Doyle K P, Fathali N, Siddiqui M R, et al. Distal hypoxic stroke: a new mouse model of stroke with high throughput, low variability and a quantifiable functional deficit. Journal of Neuroscience Methods, 2012 May 30; 207(1):31-40). Mice were placed in a large chamber containing 10% oxygen and 90% nitrogen after the occlusion of the distal MCA by a nylon suture. After 30 minutes of hypoxia, mice were returned to normoxic condition with removal of the nylon suture. Sham surgery were identical to the stroke surgery, except for the occlusion of the distal MCA.
# as §2, with “ischemia. The brains were extracted and post-fixed in 4% PFA for 48 hours. They were further cryoprotected in 20% sucrose until they sunk to the bottom of the vial.” for “ischemia.”
# primary cortical neurons [4] = assay: ATP assay (luciferase-based) after OGD; assay type: cell-based, rat
# Method: as §3
# The medium was replaced with DMEM with no glucose. Then, the cells were placed into the sealed Anaero container with an Anaero Pack (Mitsubishi Gas Chemical Company) for 1.5-2 hours. […]
# ATP levels in cell lysates were measured with luciferase chemiluminescence-based ATP assay reagent for cells (Toyo Ink) in accordance with the manufacturer's protocol. […] After incubating for 5 minutes at room temperature, luminescence of an aliquot of the solution was measured in a luminometer.
# Cellular ATP levels were measured by the luciferase-based assay after 1.5 hour OGD. […]
# C57BL/6 mice [5] = assay: Accelerating rotarod test after transient focal cerebral ischemia (distal MCAO with hypoxia); assay type: in vivo; conditions: KUS121 immediately after occlusion (100 mg/kg intravenously and 50 mg/kg intraperitoneally), 24 hours after occlusion, vehicle (5% Cremophor) 134.5±18.4, p<0.05, mean±SE
# Method: as §1, §5
# Twenty-four hours after ischemia, mice were placed on an accelerating rotarod apparatus, in which the speed was accelerated from 0 to 40 rpm over 4 minutes. The time for which mice can remain on the rotating cylinder was measured. Three trials were performed and the best latency to fall was used. […]
# [6] = tested on: C/EBP-homologous protein (CHOP); assay: Western blot of CHOP expression after tunicamycin treatment (ER stress); assay type: cell-based, rat; conditions: 0.25 μg/mL tunicamycin for 6 hours
# Method: as §3
# (§6) Cells were collected and lysed in RIPA buffer (20 mM HEPES-KOH pH 7.4, 150 mM NaCl, 2 mM EDTA, 1% Nonidet-P40, 1% sodium deoxycholate) containing 10% 2-mercaptoethanol (Nacalai tesque) and 1% protease inhibitor (Nacalai tesque). Dissected brain samples were homogenized in the RIPA buffer with 2-mercaptomethanol and protease inhibitor. Samples were sonicated and centrifuged at 4° C., 15,000 rpm for 15 minutes, and the supernatants were collected. Proteins (15-20 μg per lane) were loaded, and were separated by 5-20% SDS-PAGE and transferred to polyvinylidene fluoride membranes (Millipore). […]
# NeuN = assay: Western blotting of NeuN in cerebral cortex after transient focal cerebral ischemia; assay type: in vivo; conditions: CB-17 mice, KUS121 before ischemia
# Method: as §6, with “(Millipore). The following primary antibodies were used: β-actin (1:5000, Sigma Aldrich, A5441), CHOP (1:1000, Cell Signaling Technology, L63F7), NeuN (1:2000, Merck Millipore, ABN78), VCP (1:500, ABGENT, AP6920b). HRP-labeled secondary antibodies (Santa Cruz Biotechnology) were used for visualization by enhanced chemiluminescence (Nacalai tesque).” for “(Millipore).”
# In CB-17 mice, distal middle cerebral artery occlusion (distal MCAO) was performed as previously described with minor modifications (Kasahara Y, Ihara M, Nakagomi T, et al. A highly reproducible model of cerebral ischemia/reperfusion with extended survival in CB-17 mice. Neuroscience Research, 2013 July; 76(3):163-8). […] During surgery, rectal temperature was monitored and controlled at 36.0-37.2° C. by a feedback-regulated heating pad. […]
smiles,measurement,setting,value
"Cc1cc(F)ccc1-c1ccc(N=Nc2cc(S(=O)(=O)[O-])c3ccccc3c2N)cn1.[Na+] [KUS121, 4-amino-3-[6-(4-fluoro-2-methylphenyl)pyridine-3-ylazo]naphthalene-1-sulfonic acid sodium salt]",infarction volumes,CB-17 mice,5.74±1.64%
same,neuronal viability after OGD,primary cortical neurons [1]; 100 μM KUS throughout,43.5±3.1%
same,neuronal viability after OGD,primary cortical neurons [1]; 200 μM KUS throughout,42.4±3.7%
same,neuronal viability without OGD,primary cortical neurons [1]; without OGD,no effect
same,MAP2-positive area,primary cortical neurons [2],2.64±0.41%
same,infarction volumes,C57BL/6 mice [3],4.7±1.70%
same,ATP levels,"primary cortical neurons [4]; 100 μM KUS, after 1.5 hour OGD, vehicle (DMSO) 14.3±1.1%, p<0.001, mean±SE",28.0±2.3%
same,ATP levels without OGD,primary cortical neurons [4]; without OGD,no effect
same,rotarod retention time,C57BL/6 mice [5],201.0 ± 21.8 s
same,expression of CHOP,[6],suppressed
same,expression of NeuN in cerebral cortex,NeuN,preserved

# — patent US20210137950A1, “Pharmaceutical Composition for Treating Cerebral Infarction” (Kyoto University, priority 2018, published 2021)
